{"source": "patent US20200246432A1", "about": "“NITRIC OXIDE- AND FAS LIGAND- ELUTING COMPOSITIONS AND DEVICES AND METHODS OF TREATMENT USING SAME” (YALE UNIVERSITY, priority 2017, published 2020)", "format_in_all_cases": "cell-based", "key": {"[1]": {"tested_on": "human umbilical vein endothelial cell (HUVEC)", "assay": "EC viability: HUVEC cell number, apoptosis, proliferation", "procedure": "Next, the effect of FasL and NO donor combinations on EC viability was tested."}, "human aortic SMCs [2]": {"tested_on": "human aortic SMCs", "assay": "Fas receptor expression on cultured human aortic SMCs after NO donor treatment (staining)", "conditions": "0.1 mM DetaNONOate, 24 hours", "procedure": "FIG. 2 is a set of images illustrating the finding that 24 hours of treatment with 0.1 mM DetaNONOate (NO donor) increased Fas receptors on the surface of human aortic SMCs dramatically. Blue=DAPI nuclei, red=Fas receptor. Scale bar: 50 μm.\nBoth local delivery of FasL, and increasing the Fas receptors on the surface of the target cells, can increase the efficiency of FasL-mediated apoptosis. Nitric oxide (NO) is known to increase surface Fas receptors on vascular SMCs (Fukuo et al., Hypertension, 1996. 27(3 Pt 2): p. 823-6; Boyle, Weissberg, and Bennett, Arterioscler Thromb Vasc Biol, 2002. 22(10): p. 1624-30). […] After 24 hours of treatment with DetaNONOate, Fas receptor expression on SMCs was increased (red stain, FIG. 2, right panel)."}, "pig aortic SMCs": {"tested_on": "pig aortic SMCs", "assay": "SMC apoptosis/killing, TUNEL staining, pig aortic SMCs", "conditions": "DetaNONOate alone, up to 0.2 mM", "procedure": "(§1) FIG. 3 is a set of graphs illustrating the finding that 48 hours of treatment with varying concentrations of human FasL and DetaNONOate (NO donor) increased apoptosis in human (left panel) and pig (right panel) aortic SMCs in a synergistic way.\n(§2) Addition of FasL and NO donor DetaNONOate increased human and pig aortic SMC apoptosis in a synergistic fashion (FIG. 3). DetaNONOate alone, up to 0.2 mM concentration, led to minimal (<15%) death of human or porcine SMCs."}, "human aortic SMCs [3]": {"tested_on": "human aortic SMCs", "assay": "SMC apoptosis/killing, TUNEL staining, human aortic SMCs", "conditions": "DetaNONOate alone, up to 0.2 mM", "procedure": "as §1, §2"}}, "data": [{"compound": "NCCN(CCN)N(O)N=O", "note": "[DetaNONOate, 2,2′-(2-Hydroxy-2-nitrosohydrazinylidene)bis-ethanamine]", "values": [{"measurement": "EC viability", "setting": "[1]; DetaNONOate 0.2 mM", "result": "negatively affected EC viability"}, {"measurement": "HUVEC cell number, rates of apoptosis or proliferation", "setting": "[1]; DetaNONOate alone 0.1 mM, absence of FasL, 96 hours", "result": "did not affect"}, {"measurement": "Fas receptor expression on SMCs", "setting": "human aortic SMCs [2]", "result": "increased"}, {"measurement": "death of porcine SMCs", "setting": "pig aortic SMCs", "result": "< 15", "unit": "%"}, {"measurement": "death of human SMCs", "setting": "human aortic SMCs [3]", "result": "< 15", "unit": "%"}]}]}
